From US8859535B2, “Hydroxy substituted isoquinolinone derivatives” (Novartis AG, priority 2011, dated 2014) come the findings set out here.

Assay type in all cases: binding
Assay [1] deals with T1, human MDM2 protein (amino acids 2-188) (Homo sapiens, UniProt Q00987).
T1 construct: human MDM2 protein (amino acids 2-188); made in house
The assay is described as follows: p53-MDM2 TR-FRET assay, modified (p53-MDM2 Assay 2). As to conditions: 0.1 nM MDM2, 0.1 nM Europium labeled streptavidin; read-out: IC50 (nM) of p53-Hdm2 inhibition (TR-FRET) Assay 2. Here is the method: Time Resolved Fluorescence Energy Transfer (TR-FRET) Assay
The inhibition of p53-MDM2 and p53-MDM4 interactions is measured by time resolved fluorescence energy transfer (TR-FRET). Fluorescence energy transfer (or Foerster resonance energy transfer) describes an energy transfer between donor and acceptor fluorescent molecules. For this assay, human MDM2 protein (amino acids 2-188) and human MDM4 protein (amino acids 2-185), tagged with a C-terminal biotin moiety, are used in combination with a Europium labeled streptavidin (Perkin Elmer, Inc., Waltham, Mass., USA) serving as the donor fluorophore. The p53 derived, Cy5 labeled peptide Cy5-TFSDLWKLL (p53 aa18-26) is the energy acceptor. Upon excitation of the donor molecule at 340 nm, binding interaction between MDM2 or MDM4 and the p53 peptide induces energy transfer and enhanced response at the acceptor emission wavelength at 665 nm. Disruption of the formation of the p53-MDM2 or p53-MDM4 complex due to an inhibitor molecule binding to the p53 binding site of MDM2 or MDM4 results in increased donor emission at 620 nm. The ratiometric FRET assay readout is calculated from the raw data of the two distinct fluorescence signals measured in time resolved mode (fluorescence 665 nm/fluorescence 620 nm×1000).
After addition of 1.25 nM MDM2-biotinylated or 2.5 nM MDM4-biotinylated (internal preparations), and 0.625 nM Europium labeled streptavidin (Perkin Elmer), the solution is pre-incubated for 15 minutes at room temperature, then 10 nM Cy5-p53 peptide (internal preparation) is added before an incubation at room temperature for 15 minutes prior to reading the plate. For measurement of samples, a Victor II microplate reader (Perkin Elmer) is used with the following settings: Excitation 340 nm, Emission Donor 620 nm and Emission Acceptor 665 nm. IC50 values are calculated by curve fitting using XLfit. If not specified, reagents are purchased from Sigma-Aldrich Chemie GmBH, Buchs, Switzerland.
This assay was used to evaluate compounds displaying inhibition of p53-MDM2 interaction and p53-MDM4 interaction at IC50s of 0.005 to 50 μM (p53-MDM2 Assay 1 and p53-MDM4 Assay 1, respectively). For selected compounds displaying IC50s between […] on MDM2, a slightly modified assay is used with the following adaptations: 0.1 nM MDM2, 0.1 nM Europium labeled streptavidin and Tecan genios Pro is used as a microplate reader for the fluorescence measurements (p53-MDM2 Assay 2).
In general terms: Time-resolved FRET reads energy transfer from a long-lived donor to a nearby acceptor.

In assay [2] the target is T1, human MDM2 protein (amino acids 2-188). The assay is described as follows: p53-MDM2 TR-FRET assay (p53-MDM2 Assay 1). As to conditions: 1.25 nM MDM2-biotinylated, 10 nM Cy5-p53 peptide; read-out: IC50 (μM) of p53-Hdm2 inhibition (TR-FRET) Assay 1. The gist of the method:
(§1)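 Peptide displacement read as 665/620 nm TR-FRET ratio (excitation 340 nm) after 15 min room temperature with 10 nM Cy5-p53 aa18-26, following 15 min preincubation of Eu-streptavidin (0.625 nM) with biotinylated MDM4 aa 2-185 (2.5 nM) or MDM2 aa 2-188 (1.25 nM); IC50 curve-fitted. MDM2 Assay 2: MDM2 and Eu-streptavidin each 0.1 nM.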

Assay [3] addresses T2, human MDM4 protein (amino acids 2-185) (Homo sapiens, UniProt O15151).
T2 construct: human MDM4 protein (amino acids 2-185); made in house
T2 sequence (O15151 2-185): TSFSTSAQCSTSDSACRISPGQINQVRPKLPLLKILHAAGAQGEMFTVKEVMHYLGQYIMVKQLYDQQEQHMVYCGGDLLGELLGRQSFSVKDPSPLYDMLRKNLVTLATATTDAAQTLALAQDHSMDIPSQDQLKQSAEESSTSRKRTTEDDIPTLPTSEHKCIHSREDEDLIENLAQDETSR
The experiment in a line: p53-MDM4 TR-FRET assay (p53-MDM4 Assay 1). As to conditions: 2.5 nM MDM4-biotinylated, 10 nM Cy5-p53 peptide; read-out: IC50 (μM) of p53-Hdm4 inhibition (TR-FRET) Assay 1. The essentials:
as §1

T1 sequence (Q00987 2-188): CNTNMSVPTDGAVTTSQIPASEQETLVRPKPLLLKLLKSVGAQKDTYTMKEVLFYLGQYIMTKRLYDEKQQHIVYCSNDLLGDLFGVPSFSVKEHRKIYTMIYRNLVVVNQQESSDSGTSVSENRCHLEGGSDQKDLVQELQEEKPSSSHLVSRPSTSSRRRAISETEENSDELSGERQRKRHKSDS

In general, IC50 refers to the concentration that inhibits the measured activity by half. On to `[2H]C([2H])([2H])Oc1cc2c(cc1OC(C)C)[C@H](c1ccc(Cl)cc1)N(c1ccc(C(C)(O)C3CCS(=O)(=O)CC3)cc1)C(=O)C2` (mixture of isomers) [Example 150, (S)-1-(4-Chloro-phenyl)-2-{4-[1-(1,1-dioxo-hexahydro-1-thiopyran-4-yl)-1-hydroxy-ethyl]-phenyl}-7-isopropoxy-6-d^3-methoxy-1,4-dihydro-2H-isoquinolin-3-one], for which, in assay [1], the IC50 is 4.43 nM.
In the case of `COc1cc2c(cc1OC(C)C)[C@H](c1ccc(Cl)cc1)N(c1ccc([C@](C)(O)C3CCN(C=O)CC3)cc1)C(=O)C2` (single isomer, unassigned) [Example 124], in assay [1], the IC50 is 150 nM.
The same measure, in the same setting: next, `COc1cc2c(cc1OC(C)C)[C@H](c1ccc(Cl)cc1)N(c1ccc([C@@](C)(O)C3CCN(C=O)CC3)cc1)C(=O)C2` (single isomer, unassigned) [Example 125]: 0.746 nM.
Same read-out and setting: in the case of `COc1cc2c(cc1OC(C)C)[C@H](c1ccc(Cl)cc1)N(c1ccc([C@](C)(O)C3CCN(C4COC4)CC3)cc1)C(=O)C2` (single isomer, unassigned) [Example 126] it was 58.6 nM; in that of `COc1cc2c(cc1OC(C)C)[C@H](c1ccc(Cl)cc1)N(c1ccc([C@@](C)(O)C3CCN(C4COC4)CC3)cc1)C(=O)C2` (single isomer, unassigned) [Example 127], 0.935 nM.
As to `COc1cc2c(cc1OC(C)C)[C@H](c1ccc(Cl)cc1)N(c1ccc([C@@](C)(O)C3CCN(C(=O)COC(C)=O)CC3)cc1)C(=O)C2` (single isomer, unassigned) [Example 128], the IC50 in assay [1] is 1.34 nM.
Consider `COc1cc2c(cc1OC(C)C)[C@H](c1ccc(Cl)cc1)N(c1ccc(C(C)(O)C34CCC(CC3)C4)cc1)C(=O)C2` (stereo partly drawn) [Example 138, (S)-2-[4-(1-Bicyclo[2.2.1]hept-1-yl-1-hydroxy-ethyl)-phenyl]-1-(4-chloro-phenyl)-7-isopropoxy-6-methoxy-1,4-dihydro-2H-isoquinolin-3-one], for which the IC50 was 0.0062 µM in assay [2] and 7.54 µM in assay [3].
The matching figures for `COCCOc1cc2c(cc1OC(C)C)[C@H](c1ccc(Cl)cc1)N(c1ccc(C(C)(O)C3CCOCC3)cc1)C(=O)C2` (stereo partly drawn) [Example 145, (S)-1-(4-Chloro-phenyl)-2-{4-[1-hydroxy-1-(tetrahydro-pyran-4-yl)-ethyl]-phenyl}-7-isopropoxy-6-(2-methoxy-ethoxy)-1,4-dihydro-2H-isoquinolin-3-one]: 0.0083 µM and 3 µM.
The matching figures for `CC(C)Oc1cc2c(cc1OCc1ccccn1)CC(=O)N(c1ccc(C(C)(O)C3CCOCC3)cc1)[C@H]2c1ccc(Cl)cc1` (stereo partly drawn) [Example 146, (S)-1-(4-Chloro-phenyl)-2-{4-[1-hydroxy-1-(tetrahydro-pyran-4-yl)-ethyl]-phenyl}-7-isopropoxy-6-(pyridin-2-ylmethoxy)-1,4-dihydro-2H-isoquinolin-3-one]: 0.005 µM and 1.19 µM.
The matching figures for `CC(C)Oc1cc2c(cc1OCC1COC1)CC(=O)N(c1ccc(C(C)(O)C3CCOCC3)cc1)[C@H]2c1ccc(Cl)cc1` (stereo partly drawn) [Example 147, (S)-1-(4-Chloro-phenyl)-2-{4-[1-hydroxy-1-(tetrahydro-pyran-4-yl)-ethyl]-phenyl}-7-isopropoxy-6-(oxetan-3-ylmethoxy)-1,4-dihydro-2H-isoquinolin-3-one]: 0.0086 µM and 3.05 µM.
Turning to `CNC(=O)COc1cc2c(cc1OC(C)C)[C@H](c1ccc(Cl)cc1)N(c1ccc(C(C)(O)C3CCOCC3)cc1)C(=O)C2` (stereo partly drawn) [Example 148, 2-((S)-1-(4-Chloro-phenyl)-2-{4-[1-hydroxy-1-(tetrahydro-pyran-4-yl)-ethyl]-phenyl}-7-isopropoxy-3-oxo-1,2,3,4-tetrahydro-isoquinolin-6-yloxy)-N-methyl-acetamide], the IC50 amounted to 0.0067 µM in assay [2] and 2.64 µM in assay [3].
The matching figures for `CC(C)Oc1cc2c(cc1OCC(=O)N(C)C)CC(=O)N(c1ccc(C(C)(O)C3CCOCC3)cc1)[C@H]2c1ccc(Cl)cc1` (stereo partly drawn) [Example 149, 2-((S)-1-(4-Chloro-phenyl)-2-{4-[1-hydroxy-1-(tetrahydro-pyran-4-yl)-ethyl]-phenyl}-7-isopropoxy-3-oxo-1,2,3,4-tetrahydro-isoquinolin-6-yloxy)-N,N-dimethyl-acetamide]: 0.0101 µM and 5.53 µM.
In the same order, the values of `COc1cc2c(cc1OC(C)C)[C@H](c1ccc(Cl)cc1)N(c1ccc(C(C)(O)C3CC(C)(C)OC(C)(C)C3)cc1)C(=O)C2` (some centres unmarked) [Example 162] are 0.0065 µM and 5.53 µM.
On to `COc1cc2c(cc1OC(C)C)[C@H](c1ccc(Cl)cc1)N(c1ccc(C(C)(O)C3CCS(=O)(=O)CC3)cc1)C(=O)C2` (stereo partly drawn) [Example 166, (S)-1-(4-Chloro-phenyl)-2-{4-[1-(1,1-dioxo-hexahydro-1-thiopyran-4-yl)-1-hydroxy-ethyl]-phenyl}-7-isopropoxy-6-methoxy-1,4-dihydro-2H-isoquinolin-3-one], for which the IC50 in assay [2] came out at 0.00735 µM; in assay [3], 7.78 µM.
In the same order, the values of `COc1cc2c(cc1OC(C)C)[C@H](c1ccc(Cl)cc1)N(c1ccc([C@](C)(O)C3CCS(=O)(=O)CC3)cc1)C(=O)C2` [Example 167, (S)-1-(4-Chloro-phenyl)-2-{4-[(R)-1-(1,1-dioxo-hexahydro-1-thiopyran-4-yl)-1-hydroxy-ethyl]-phenyl}-7-isopropoxy-6-methoxy-1,4-dihydro-2H-isoquinolin-3-one] are 0.125 µM and 51.1 µM.
Turning to `COc1cc2c(cc1OC(C)C)[C@H](c1ccc(Cl)cc1)N(c1ccc(C(C)(O)C3CC[S+]([O-])CC3)cc1)C(=O)C2` (stereo partly drawn) [Example 169, (S)-1-(4-Chloro-phenyl)-2-{4-[1-hydroxy-1-(1-oxo-hexahydro-1-thiopyran-4-yl)-ethyl]-phenyl}-7-isopropoxy-6-methoxy-1,4-dihydro-2H-isoquinolin-3-one], the IC50 in assay [2] came out at 0.0096 µM; in assay [3] it was 8.3 µM.
The matching figures for `COc1cc2c(cc1OC(C)C)[C@H](c1ccc(Cl)cc1)N(c1ccc([C@](C)(O)C3CC[S+]([O-])CC3)cc1)C(=O)C2` (stereo partly drawn) [Example 170, (S)-1-(4-Chloro-phenyl)-2-{4-[(R)-1-hydroxy-1-(1-oxo-hexahydro-thiopyran-4-yl)-ethyl]-phenyl}-7-isopropoxy-6-methoxy-1,4-dihydro-2H-isoquinolin-3-one]: 0.168 µM and 62.5 µM.
The matching figures for `COc1cc2c(cc1OC(C)C)[C@H](c1ccc(Cl)cc1)N(c1ccc([C@@](C)(O)C3CC[S+]([O-])CC3)cc1)C(=O)C2` (stereo partly drawn) [Example 171, (S)-1-(4-Chloro-phenyl)-2-{4-[(S)-1-hydroxy-1-(1-oxo-hexahydro-1-thiopyran-4-yl)-ethyl]-phenyl}-7-isopropoxy-6-methoxy-1,4-dihydro-2H-isoquinolin-3-one]: 0.0031 µM and 4.4 µM.
The matching figures for `COc1cc2c(cc1OC(C)C)[C@H](c1ccc(Cl)cc1)N(c1ccc([C@](C)(O)C3CC4CCC(C3)S4(=O)=O)cc1)C(=O)C2` (stereo partly drawn) [Example 173, (S)-1-(4-Chloro-phenyl)-2-{4-[(R)-1-(8,8-dioxo-8-thia-bicyclo[3.2.1]oct-3-yl)-1-hydroxy-ethyl]-phenyl}-7-isopropoxy-6-methoxy-1,4-dihydro-2H-isoquinolin-3-one]: 0.0943 µM and 41.4 µM.
